# Where a name gives a salt, the structure may show the parent alone.
# Legend:
# Assay type in all cases: physicochemical
# [1] = Photodegradation quantified by HPLC (undegraded active principle in solution); conditions: after five days under natural light, 4×10^−2 M
# Method: Promethazine photodegradation was monitored by HPLC on a Waters 2695 chromatograph equipped with Millipore 510 pumps and an XBridge RP18 column (2.1×100 nm, 3.5 μm). Promethazine is detected by UV-visible spectrophotometry, at a wavelength of 251 nm, with a Waters 2487 Dual λ Absorbance Detector. The mobile phase is composed of a 22/78 mixture of 0.1% formic acid in water and acetonitrile. Elution is carried out in isocratic mode with a flow rate of 0.35 ml/min^−1. The volumes injected are 10 μl. All the samples were injected three times.
# A calibration curve is prepared beforehand with promethazine hydrochloride over a range of concentrations between 10^5 M and 5×10^−2 M.
# In order to refine the results obtained, degradation of promethazine hydrochloride and the catanionic association Lac6P was quantified by high-performance liquid chromatography (HPLC). Degradation is monitored by assaying the quantity of undegraded active principle present in solution (FIG. 2).
# [2] = Photostability under natural light, visual observations; conditions: 4×10^−2 M solution, 25° C. water bath
# Method: (§1) To carry out this study, the various solutions (4×10^−2 M) are placed in a 25° C. water bath under natural light for several weeks. This gentler mode of irradiation was preferred over the use of a Xenon lamp which degrades the active principle too rapidly and makes it impossible to establish a comparison.
# [3] = Photodegradation monitored by UV / visible spectrophotometry; conditions: after two months under natural exposure; for λmax (nm): visible range
# Method: The study of the photophysical properties of promethazine hydrochloride and the association Lac6P on the one hand, and mequitazine hydrochloride and the association Lac6M on the other, was thus undertaken by UV spectrophotometry.
# This study was carried out on a Hewlett-Packard 8452A diode array spectrophotometer operating at wavelengths between 190 nm and 820 nm.
# The solutions were analyzed in quartz cells at concentrations of 4×10 ^−2 M and 6.6×10^−5 M.
# as §1
# However, in order to better understand this phenomenon, photodegradation of the hydrochlorides and the associations Lac6P and Lac6M was monitored by visible spectrophotometry. This analysis technique is particularly suited to the study of this phenomenon because it takes color variations into account.
# After two months under natural exposure, the appearance of a band for promethazine and mequitazine hydrochlorides, as well as for the catanionic association Lac6P, confirms the color changes observed. It is important to note that in visible spectrophotometry, perceived color is always complementary to absorbed radiation. For example, mequitazine hydrochloride absorbs in the green spectrum (λ=512 nm) and appears pink-purple.
Structure (SMILES),degradation rate [1] [%],appearance of an insoluble product (visual observation) [2],colour change of the solution (visual observation) [2],Color observed [3],λmax (nm) [3] [nm]
"CC(CN1c2ccccc2Sc2ccccc21)N(C)C (centres unmarked) [Promethazine hydrochloride, promethazine hydrochloride]",13,an insoluble compound appears after about two weeks under natural light,turns pink after 24 hours of exposure and changes to blue-violet after a few days,violet-indigo,538
"c1ccc2c(c1)Sc1ccccc1N2CC1CN2CCC1CC2 (centres unmarked) [Mequitazine hydrochloride, mequitazine hydrochloride]",,,"turns pink after ten days of exposure, and then changes no further",pink-purple,512

# — patent publication US8895518B2, “Cooperative conveyance of basic active principles by amphiphilic acid molecules” (Centre National de la Recherche Scientifique, priority 2009, dated 2014)
